ChEMBL document CHEMBL3045656, “Is the application of carbendazim harmful to healthy plants? Evidence of weak phytotoxicity in tobacco” (J Agric Food Chem, 2002)

Tests used:
Type in all cases: organism-based
Nicotiana tabacum [1] = assay: Toxicity in Nicotiana tabacum (tobacco) leaves assessed as phosphorus level per gram of dry weight per leaf at 5.2 mM treated 3 times in 2 weeks measured prior to onset of flowering relative to control; conditions: in vivo, 336 h, 5200 µM
Nicotiana tabacum [2] = assay: Toxicity in Nicotiana tabacum (tobacco) leaves assessed as phosphorus level per gram of dry weight per leaf at 2.6 mM treated 3 times in 2 weeks measured prior to onset of flowering relative to control; conditions: in vivo, 336 h, 2600 µM
Nicotiana tabacum [3] = assay: Toxicity in Nicotiana tabacum (tobacco) leaves assessed as calcium level per gram of dry weight per leaf at 5.2 mM treated 3 times in 2 weeks measured prior to onset of flowering relative to control; conditions: in vivo, 336 h, 5200 µM
Nicotiana tabacum [4] = assay: Toxicity in Nicotiana tabacum (tobacco) leaves assessed as reduction of dry weight at 5.2 mM treated 3 times in 2 weeks measured prior to onset of flowering relative to control; set-up: scale not given: the % may be the effect or the level left; conditions: in vivo, 336 h, 5200 µM
Nicotiana tabacum [5] = assay: Toxicity in Nicotiana tabacum (tobacco) leaves assessed as potassium level per gram of dry weight per leaf at 1.3 mM treated 3 times in 2 weeks measured prior to onset of flowering relative to control; conditions: in vivo, 336 h, 1300 µM
Nicotiana tabacum [6] = assay: Toxicity in Nicotiana tabacum (tobacco) leaves assessed as nitrogen level per gram of dry weight per leaf at 1.3 mM treated 3 times in 2 weeks measured prior to onset of flowering relative to control; conditions: in vivo, 336 h, 1300 µM
Nicotiana tabacum [7] = assay: Toxicity in Nicotiana tabacum (tobacco) leaves assessed as effect on chlorophyll-a level at 1.3 mM treated 3 times in 2 weeks measured prior to onset of flowering relative to control; conditions: in vivo, 336 h, 1300 µM
Nicotiana tabacum [8] = assay: Toxicity in Nicotiana tabacum (tobacco) leaves assessed as calcium level per gram of dry weight per leaf at 1.3 mM treated 3 times in 2 weeks measured prior to onset of flowering relative to control; conditions: in vivo, 336 h, 1300 µM
Nicotiana tabacum [9] = assay: Toxicity in Nicotiana tabacum (tobacco) leaves assessed as magnesium level per gram of dry weight per leaf at 5.2 mM treated 3 times in 2 weeks measured prior to onset of flowering relative to control; conditions: in vivo, 336 h, 5200 µM
Nicotiana tabacum [10] = assay: Toxicity in Nicotiana tabacum (tobacco) leaves assessed as effect on carotenoids level at 5.2 mM treated 3 times in 2 weeks measured prior to onset of flowering relative to control; conditions: in vivo, 336 h, 5200 µM
Nicotiana tabacum [11] = assay: Toxicity in Nicotiana tabacum (tobacco) leaves assessed as effect on chlorophyll-b level at 5.2 mM treated 3 times in 2 weeks measured prior to onset of flowering relative to control; conditions: in vivo, 336 h, 5200 µM
Nicotiana tabacum [12] = assay: Toxicity in Nicotiana tabacum (tobacco) leaves assessed as effect on chlorophyll-a level at 2.6 mM treated 3 times in 2 weeks measured prior to onset of flowering relative to control; conditions: in vivo, 336 h, 2600 µM
Nicotiana tabacum [13] = assay: Toxicity in Nicotiana tabacum (tobacco) leaves assessed as magnesium level per gram of dry weight per leaf at 2.6 mM treated 3 times in 2 weeks measured prior to onset of flowering relative to control; conditions: in vivo, 336 h, 2600 µM
Nicotiana tabacum [14] = assay: Toxicity in Nicotiana tabacum (tobacco) leaves assessed as magnesium level per gram of dry weight per leaf at 1.3 mM treated 3 times in 2 weeks measured prior to onset of flowering relative to control; conditions: in vivo, 336 h, 1300 µM
Nicotiana tabacum [15] = assay: Toxicity in Nicotiana tabacum (tobacco) leaves assessed as potassium level per gram of dry weight per leaf at 2.6 mM treated 3 times in 2 weeks measured prior to onset of flowering relative to control; conditions: in vivo, 336 h, 2600 µM
Nicotiana tabacum [16] = assay: Toxicity in Nicotiana tabacum (tobacco) leaves assessed as effect on carotenoids level at 2.6 mM treated 3 times in 2 weeks measured prior to onset of flowering relative to control; conditions: in vivo, 336 h, 2600 µM
Nicotiana tabacum [17] = assay: Toxicity in Nicotiana tabacum (tobacco) leaves assessed as reduction of dry weight at 1.3 to 2.6 mM treated 3 times in 2 weeks measured prior to onset of flowering; conditions: in vivo, 336 h, 2600 µM
Nicotiana tabacum [18] = assay: Toxicity in Nicotiana tabacum (tobacco) leaves assessed as effect on chlorophyll-b level at 2.6 mM treated 3 times in 2 weeks measured prior to onset of flowering relative to control; conditions: in vivo, 336 h, 2600 µM
Nicotiana tabacum [19] = assay: Toxicity in Nicotiana tabacum (tobacco) leaves assessed as effect on chlorophyll-b level at 1.3 mM treated 3 times in 2 weeks measured prior to onset of flowering relative to control; conditions: in vivo, 336 h, 1300 µM
Nicotiana tabacum [20] = assay: Toxicity in Nicotiana tabacum (tobacco) leaves assessed as phosphorus level per gram of dry weight per leaf at 1.3 mM treated 3 times in 2 weeks measured prior to onset of flowering relative to control; conditions: in vivo, 336 h, 1300 µM
Nicotiana tabacum [21] = assay: Toxicity in Nicotiana tabacum (tobacco) leaves assessed as calcium level per gram of dry weight per leaf at 2.6 mM treated 3 times in 2 weeks measured prior to onset of flowering relative to control; conditions: in vivo, 336 h, 2600 µM
Nicotiana tabacum [22] = assay: Toxicity in Nicotiana tabacum (tobacco) leaves assessed as nitrogen level per gram of dry weight per leaf at 5.2 mM treated 3 times in 2 weeks measured prior to onset of flowering relative to control; conditions: in vivo, 336 h, 5200 µM
Nicotiana tabacum [23] = assay: Toxicity in Nicotiana tabacum (tobacco) leaves assessed as effect on chlorophyll-a level at 5.2 mM treated 3 times in 2 weeks measured prior to onset of flowering relative to control; conditions: in vivo, 336 h, 5200 µM
Nicotiana tabacum [24] = assay: Toxicity in Nicotiana tabacum (tobacco) leaves assessed as effect on carotenoids level at 1.3 mM treated 3 times in 2 weeks measured prior to onset of flowering relative to control; conditions: in vivo, 336 h, 1300 µM
Nicotiana tabacum [25] = assay: Toxicity in Nicotiana tabacum (tobacco) leaves assessed as potassium level per gram of dry weight per leaf at 5.2 mM treated 3 times in 2 weeks measured prior to onset of flowering relative to control; conditions: in vivo, 336 h, 5200 µM
Nicotiana tabacum [26] = assay: Toxicity in Nicotiana tabacum (tobacco) leaves assessed as nitrogen level per gram of dry weight per leaf at 2.6 mM treated 3 times in 2 weeks measured prior to onset of flowering relative to control; conditions: in vivo, 336 h, 2600 µM

Which results are given for `COC(=O)Nc1nc2ccccc2[nH]1` [CARBENDAZIM]?
Activity (Nicotiana tabacum [1]): 8.47 mg; Activity (Nicotiana tabacum [2]): 8.61 mg; Activity (Nicotiana tabacum [3]): 10.1 mg; Activity (Nicotiana tabacum [4]): 17%; Activity (Nicotiana tabacum [5]): 36.7 mg; Activity (Nicotiana tabacum [6]): 41.7 mg; Activity (Nicotiana tabacum [7]): 66.82 microg/cm2; Activity (Nicotiana tabacum [8]): 10.5 mg; Activity (Nicotiana tabacum [9]): 6.5 mg; Activity (Nicotiana tabacum [10]): 3.9 microg/cm2; Activity (Nicotiana tabacum [11]): 21.9 microg/cm2; Activity (Nicotiana tabacum [12]): 62.46 microg/cm2; Activity (Nicotiana tabacum [13]): 6.7 mg; Activity (Nicotiana tabacum [14]): 6.4 mg; Activity (Nicotiana tabacum [15]): 35.4 mg; Activity (Nicotiana tabacum [16]): 4.64 microg/cm2; Activity (Nicotiana tabacum [17]): Non-toxic; Activity (Nicotiana tabacum [18]): 24.98 microg/cm2; Activity (Nicotiana tabacum [19]): 25.88 microg/cm2; Activity (Nicotiana tabacum [20]): 9.73 mg; Activity (Nicotiana tabacum [21]): 10.2 mg; Activity (Nicotiana tabacum [22]): 38.9 mg; Activity (Nicotiana tabacum [23]): 54.14 microg/cm2; Activity (Nicotiana tabacum [24]): 4.8 microg/cm2; Activity (Nicotiana tabacum [25]): 34.1 mg; Activity (Nicotiana tabacum [26]): 41.6 mg
